Reference: patent US12428455B2, “Dominant negative CEBPB and CEBPD proteins and methods of use for decreasing viability of neoplastic cells” (The Trustees of Columbia University in the City of New York, priority 2018, dated 2025)
No end group written: not given here.

Assays:
[1] = test system: B16 murine melanoma cells; experiment: Cell number after peptide treatment, B16; format: cell-based; settings: 6 days, 0 μM to 50 μM; stock without BSA
Method: (§1) Replicate cultures were exposed to the peptides the for 6 days at the indicated concentrations. Stock solutions of the peptides were prepared in buffer without added bovine serum albumin (BSA).

[2] = test system: paclitaxel-resistant T98G cells; experiment: Cell number, paclitaxel-resistant T98G cells; format: cell-based; settings: 6 days; 0 μM to 50 μM peptide or 0 nM to 50 nM paclitaxel
Method: Replicate cultures of T98G wild type cells and paclitaxel-resistant T98G cells were treated with 0 nM to 50 nM paclitaxel or 0 μM to 50 μM CP-dn-CEBPB or CP-dn-CEBPD peptides, maintained for 6 days, and then assessed for cell number. Paclitaxel resistant T98G cells were inhibited by both CP-dn-CEBPB (FIG. 28A) and CP-dn-CEBPD (FIG. 28B), but, as expected were not inhibited by paclitaxel (FIG. 28C). This establishes that CP-dn-CEBPB and CP-dn-CEBPD may be effective against chemotherapy-resistant cells.

BMF transcripts = experiment: qPCR for BMF transcripts; format: cell-based; settings: 20 μM, 3 days; T98G, MDA-MB-231, MCF7, A375 and HCT116 cells
Method: T98G, MDA-MB-231, MCF7, A375, and HCT116 cells were treated with or without 20 μM CP-dn-CEBPB or CP-dn-CEBPD for 3 days and then assessed by qPCR for relative levels of BMF transcripts (FIG. 35A, T98G; FIG. 35B, MDA-MB-231; FIG. 35C, MCF7; FIG. 35D, A375; FIG. 35E, HCT116).

[3] = test system: MDA-MB-231, MCF7, HCT116 and T98G cancer cell lines; experiment: PI-Annexin staining and flow cytometry, cancer cell lines; format: cell-based; settings: 20 μM, 3 days
Method: (§2) MDA-MB-231, MCF7, HCT116 and T98G cancer cell lines and HIEC-6 non-cancer cell lines were treated for 3 days with 20 μM CP-dn-CEBPB and CP-dn-CEBPD peptides from stock solutions prepared without additives, followed by PI-Annexin staining and flow cytometry. Numbers in upper and lower quadrants indicate % of cells in early (lower) or late (upper) apoptotic phase.

[4] = test system: ASNS (Asparagine synthetase); experiment: qPCR for ASNS; format: cell-based; settings: 20 μM, 3 days; T98G, MDA-MB-231, MCF7, A375 and HCT116 cells
Method: T98G, MDA-MB-231, MCF7, A375, and HCT116 cells were treated with or without 20 μM CP-dn-CEBPB or CP-dn-CEBPD for 3 days and then assessed by qPCR for relative levels of ASNS (Asparagine synthetase) (FIG. 33A, T98G; FIG. 33B, MDA-MB-231; FIG. 33C, MCF7; FIG. 33D, A375; FIG. 33E, HCT116).

[5] = test system: MDA-MB-231 breast cancer cells; experiment: Cell number after peptide treatment, MDA-MB-231; format: cell-based; settings: 6 days, 0 μM to 50 μM; stock without BSA
Method: as §1
Replicate cultures of HCT116, MDA-MB 231, MCF7, and T98G cells were exposed to a 50/50 by concentration mixture of CP-DN-CEBPB and CP-DN-CEBPD for 6 days at doses of 0 μM to 50 μM. Stock solutions of the peptides were prepared in buffer without added bovine serum albumin (BSA).
Replicate cultures of T98G, HCT116, MDA-MB 231, and MCF7 cells were exposed to CP-DN-CEBPB, CP-DN-CEBPD, or a CP-DN-CEBPD in which heptad repeat leucine residues were mutated to glycine residues for 6 days at doses of 0 μM to 50 μM. Stock solutions of the peptides were prepared in buffer without added bovine serum albumin (BSA).

T98G cells [6] = experiment: Combination with gamma radiation, cell number, T98G; format: cell-based; settings: 2 Gy or 5 Gy; peptide 0.05, 0.5 or 5 μM one day later, 6 days; CI<1 indicates synergism
Method: Replicate cultures of T98G and HCT116 cells were exposed to 2 Gy or 5 Gy of gamma radiation. One day later, the cultures were treated with 0.05 μM, 0.5 μM, or 5 μM CP-dn-CEBPB and CP-dn-CEBPD peptides, maintained for 6 days, and then assessed for cell number. The bar graphs of FIGS. 24A (T98G, CP-dn-CEBPB), 24C (T98G, CP-dn-CEBPBD, 24E (HCT116, CP-dn-CEBPD), and 24G (HCT116, CP-dn-CEBPD) show relative cell numbers for each condition as compared to untreated controls. The line graphs of FIGS. 24B (T98G, CP-dn-CEBPB), 24D (T98G, CP-dn-CEBPBD, 24F (HCT116, CP-dn-CEBPB), and 24H (HCT116, CP-dn-CEBPD) show the response as normalized in each case so that 100 represents the relative number of surviving cells that received the indicated level of radiation treatment, but no peptide treatment. Calculated Combination Indexes (CI) are T98G, CI=0.61±0.05 for CP-dn-CEBPB, 0.68±0.07 for CP-dn-CEBPD; HCT116, 0.89±0.04 for CP-dn-CEBPB, 0.86±0.05 for CP-dn-CEBPD. CI=1 indicates additivity; CI<1 indicates synergism; CI>1 indicates antagonism.

T98G cells [7] = experiment: Colony forming activity on culture plates, T98G; format: cell-based; settings: 6 days; doses 0.05, 0.5 and 5 μM
Method: T98G (FIG. 21A), MDA-MB 231 (FIG. 21B), and HCT116 (FIG. 21C) cells were exposed to CP-DN-CEBPB and CP-DN-CEBPD for 6 days at doses of 0.05 μM 0.5 μM, and 5 μM while growing in soft agar. Growth was inhibited by does as low as 0.5 μM. T98G (FIG. 21D), MDA-MB 231 (FIG. 21E), and HCT116 (FIG. 21F) cells were exposed to CP-DN-CEBPB and CP-DN-CEBPD for 6 days at doses of 0.05 μM 0.5 μM, and 5 μM while growing on culture plates. Growth was inhibited by does as low as 0.5 μM.

[8] = test system: BCL2, MCL1 and survivin proteins; experiment: Western immunoblotting for pro-survival proteins; format: cell-based; settings: 20 μM, 3 days; T98G, HCT116, MDA-MB-231 and MCF7 cell lines
Method: T98G, HCT116, MDA-MB-231, and MCF7 cell lines were exposed to 0 or 20 μM CP-dn-CEBPB or CP-dn-CEBPD for 3 days and then assessed by Western immunoblotting for levels of BCL2, MCL1 and survivin proteins with actin as loading control (FIG. 34A). Remaining panels show amounts of surviving (FIG. 34B), BCL2 (FIG. 34C) and MCL1 (FIG. 34D) were quantified relative to actin in multiple experiments.

[9] = test system: HIEC-6 non-cancer cell lines; experiment: PI-Annexin staining and flow cytometry, HIEC-6; format: cell-based, human; settings: 20 μM, 3 days
Method: as §2

Sequence	growth and survival of B16 cells [1]	inhibition of paclitaxel-resistant T98G cells (cell number) [2]	relative levels of BMF transcripts (BMF transcripts)	apoptotic death (early or late apoptotic phase) [3]	relative levels of ASNS [4]	growth and survival / numbers of MDA-MB-231 cells [5]	Combination Index (CI) with gamma radiation (T98G cells [6])	lowest dose at which growth was inhibited, culture plates (T98G cells [7])	levels of BCL2, MCL1 and survivin proteins relative to actin [8]	apoptotic death (early or late apoptotic phase) [9]
RQIKIWFQNRRMKWKKLETQHKVLELTAENERLQKKVEQLSRELSTLRNLFKQL [CP-DN-CEBPB]	decrease in growth and survival	inhibited	upregulate pro-apoptotic BMF	caused apoptotic death in multiple cancer cell lines	suppress expression of ASNS	decrease in growth and survival	0.61±0.05	0.5 µM	surpress expression of pro-survival proteins	not in the control non-caner cell line
RQIKIWFQNRRMKWKKLVELSAENEKLHQRVEQLTRDLAGLRQFFK [CP-DN-CEBPD]	decrease in growth and survival	inhibited	upregulate pro-apoptotic BMF	caused apoptotic death in multiple cancer cell lines	suppress expression of ASNS	decrease in growth and survival	0.68±0.07	0.5 µM	surpress expression of pro-survival proteins	not in the control non-caner cell line
